From patent US6841567B1, “Cyclic substituted fused pyrrolocarbazoles and isoindolones” (Cephalon, Inc., priority 1999, dated 2005) come the findings set out here.

Assay [1] addresses T1, baculovirus-expressed human trkA cytoplasmic domain (Homo sapiens, UniProt P04629).
T1 construct: baculovirus-expressed human trkA cytoplasmic domain; made in house; host or cells: baculovirus expression system
Description: Inhibition of trkA tyrosine kinase activity (ELISA-based assay). The assay is classed as biochemical. As to conditions: 300 nM compound. The method, boiled down:
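Baculovirus-expressed trkA cytoplasmic domain phosphorylated plate-coated PLC-γ1/GST substrate in 50 mM Hepes pH 7.4, 40 μM ATP, 10 mM MnCl2, 2% DMSO, 15 min at 37 °C. Phosphotyrosine detected by ELISA with alkaline phosphatase-linked secondary antibody; IC50 from variable-slope sigmoidal fit.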
A general note: In an ELISA, binding on a coated surface is turned into a signal by an enzyme label.

The subject of assay [2] is ChAT activity in dissociated rat embryonic spinal cord culture. Description: Enhancement of spinal cord ChAT activity. The assay is classed as cell-based. The text has this:
As discussed above, CHAT is a specific biochemical marker for functional cholinergic neurons. Cholinergic neurons represent a major cholinergic input into the hippocampal formation, olfactory nucleus, interpeduncular nucleus, cortex, amygdala, and parts of the thalamus. In the spinal cord, the motor neurons are cholinergic neurons which contain CHAT (Phelps et al., J. Comp. Neurol. 273:459-472 (1988)). ChAT activity has been used to study the effects of neurotrophins (e.g., NGF or NT-3) on the survival and/or function of cholinergic neurons. The ChAT assay also serves as an indication of the regulation of ChAT levels within cholinergic neurons.
For example, in these assays, a compound was directly added to a dissociated spinal cord culture. Compounds which increased ChAT activity at least 120% of the control activity were considered active.
Methods: Fetal rat spinal cord cells were dissociated, and experiments were performed as described (Smith et al., J. Cell Biology 101:1608-1621 (1985); Glicksman et al., J. Neurochem. 61:210-221 (1993)). […] ChAT activity was measured after 2 days in vitro using a modification of the Fonnum procedure (Fonnum, J. Neurochem. 24:407-409 (1975)) according to McManaman et al. and Glicksman et al. (McManamnan et al., Developmental Biology 125:311-320 (1988); Glicksman et al., J. Neurochem., supra).

T1 sequence (P04629 440-796 limits assumed): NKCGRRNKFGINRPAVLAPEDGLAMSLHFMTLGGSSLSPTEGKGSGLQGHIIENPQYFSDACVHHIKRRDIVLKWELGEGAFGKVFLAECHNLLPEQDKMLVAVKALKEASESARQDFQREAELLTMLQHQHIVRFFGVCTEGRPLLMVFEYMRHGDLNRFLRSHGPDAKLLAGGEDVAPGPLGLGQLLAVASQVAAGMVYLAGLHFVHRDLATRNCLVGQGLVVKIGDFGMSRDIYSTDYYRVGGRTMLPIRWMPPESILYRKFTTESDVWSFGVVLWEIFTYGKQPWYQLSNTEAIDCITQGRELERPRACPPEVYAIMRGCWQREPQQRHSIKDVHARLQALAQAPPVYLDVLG

Take `CC(C)(C)C(=O)OCC1(C2c3ccccc3-c3c4c(c5c([nH]c6ccccc65)c32)CNC4=O)CCCO1` (mixture of isomers) [II-20]: the “trkA kinase activity % Inh. @ 300 nM (values in parentheses)” value in assay [1] is reported as “(39) %”. Further, the “Spinal Cord ChAT (% control) Activity at 30 nM” value in assay [2] (30 nM compound) was determined as 132 % control. In addition, the “Spinal Cord ChAT (% control) Maximal Activity” value in assay [2] (@ 500 nM) is reported as 191 @ 500 nM % control.
